Counter-ions that a name gives are not always drawn.

Results on two compounds are retold here after patent publication US7294641B2, “Heterocyclic compound for stimulating or inducing the growth of the hair or eyelashes and/or slowing down their loss, composition comprising it and its uses” (L'Oreal, priority 2002, dated 2007).

For assay [1], the target named is T1, 15PGDH (Homo sapiens, UniProt P15428).
T1 sequence (P15428 1-266): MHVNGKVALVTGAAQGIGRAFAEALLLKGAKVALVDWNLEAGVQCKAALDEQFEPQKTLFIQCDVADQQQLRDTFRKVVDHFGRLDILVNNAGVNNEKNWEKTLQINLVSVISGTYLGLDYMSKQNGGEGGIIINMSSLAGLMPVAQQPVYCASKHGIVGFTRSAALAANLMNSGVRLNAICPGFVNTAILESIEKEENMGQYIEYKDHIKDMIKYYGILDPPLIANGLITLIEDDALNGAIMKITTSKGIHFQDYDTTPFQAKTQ
The assay is described as follows: Test on 15-PGDH (spectrophotometric, 340 nm, PGE2/β-NAD). The format is biochemical. Also noted: made in house. The protocol: The enzyme 15-PGDH is obtained as disclosed in Application FR-A-02/05067, filed on behalf of L'Oréal, in suspension in a suitable medium at a concentration of 0.3 mg/ml, then blocked at −80° C. For the requirements of the test, this suspension is defrosted and stored in ice.
Furthermore, a Tris 100 mM, pH=7.4, buffer comprising 0.1 mM of dithiothreitol (D5545, Sigma-Aldrich, L'isle D'Abeau Chesne, BP 701, 38297, Saint Quentin Fallavier), 1.5 mM of β-NAD (N6522, Sigma-Aldrich, L'isle D'Abeau Chesne, BP 701, 38297, Saint Quentin Fallavier) and 50 μM of prostaglandin E2 (P4172, Sigma-Aldrich, L'isle D'Abeau Chesne, BP 701, 38297, Saint Quentin Fallavier) is prepared.
0.965 ml of this buffer (brought beforehand to 37° C.) is introduced into the cell of a spectrophotometer (Perkin-Elmer, Lambda 2) thermostatically controlled at 37° C., the wavelength of which for the measurement is adjusted to 340 nm. 0.035 ml of enzymatic suspension at 37° C. is introduced into the cell concomitantly with the recording (corresponding to an increase in optical density at 340 nm). The maximum rate of reaction is noted.
The test values (comprising the compounds (I)) are compared with the control value (without compound (I)); the results indicated represent the concentration at which the compound (I) inhibits 50% of the enzymatic activity of 15-PGDH, referred to as IC50dh.

Assay [2] addresses T1, 15PGDH. The assay is described as follows: Specific inhibitory effectiveness for 15PGDH on a cell model (PGF2 secreted by PMA/LPS-treated U937). The format is cell-based. Also noted: endogenous in cells; host or cells: U937 (ATCC CRL-1593), PMA-differentiated, LPS-stimulated. Conditions: 5 μM test molecule, 10 ng LPS, 6 h at 37° C., immuno-enzymatic assay. The protocol:
The present study is targeted at evaluating the compounds of formula (I) in a cell model. This study makes it possible to determine the penetration of the active principle into the cytosol and its effectiveness as specific inhibitor of 15-PGDH under more complex experimental conditions than a simple reaction medium.
D-2. Culturing of U937 (CRL-1593 American Type Cells Collection) in RPMI medium 1640+10% of foetal calf serum+2 mM of L-glutamine+antibiotics at 37° C. under 5% of CO2.
D-1. Preparation of a suspension of U937 (1×10^6 cells/ml) in RPMI medium 1640+10% of foetal calf serum+2 mM of glutamine+antibiotics+10 nM of PMA (phorbol 12-myristate 13-acetate); introduction of 200 μl per test well of this suspension into a 96-well plate (3 wells per molecule and per concentration to be tested+corresponding controls); incubation at 37° C. for 36 h 00 under 5% CO2.
D0. Removal of the supernatants (the cells have adhered to the bottom of the wells: monitoring using a microscope) and introduction into each well of 100 μl of RPMI 1640+2 mM of L-glutamine+10 ng of LipoPolySaccharide (LPS) (except absolute control)+the test molecule at the desired concentration (in this instance, 5 and 25 μM).
Incubation at 37° C. for 6 h 00 under 5% of CO2.
The mother solutions of test molecules are at 25 mM in DiMethyl SulfOxide.
All the wells comprise the same final amount of DMSO. […]

For a further assay, the target named is T2, PGF synthase (Homo sapiens, UniProt P42330).
T2 construct: made in house
T2 sequence (P42330 1-323): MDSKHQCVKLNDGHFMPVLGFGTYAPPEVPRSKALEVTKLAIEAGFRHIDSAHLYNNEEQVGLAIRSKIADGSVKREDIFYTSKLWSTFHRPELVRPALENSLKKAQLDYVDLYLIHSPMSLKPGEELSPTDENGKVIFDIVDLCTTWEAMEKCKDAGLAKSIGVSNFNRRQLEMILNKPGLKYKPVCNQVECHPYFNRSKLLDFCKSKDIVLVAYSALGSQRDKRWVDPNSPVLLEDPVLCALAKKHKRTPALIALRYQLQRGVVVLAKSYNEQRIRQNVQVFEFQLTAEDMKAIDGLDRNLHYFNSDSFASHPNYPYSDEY
The assay is described as follows: Test on PGFS (spectrophotometric, 340 nm, 9,10-phenanthrenequinone/β-NADPH). The format is biochemical. As to conditions: Tris 100 mM pH 6.5, 37° C., 20 μM 9,10-phenanthrenequinone, 100 μM β-NADPH; read-out: Inhibition of PGFS IC50fs. Here is the method:
The enzyme PGF synthase is obtained as disclosed in the document FR-A-02/05067, at a concentration of 0.5 mg/ml, in suspension in an appropriate medium, and is blocked at −80° C. For the requirements of the test, this suspension is defrosted and stored in ice.
Furthermore, a Tris 100 mM, pH=6.5, buffer comprising 20 μM of 9,10-phenanthrenequinone* (P2896, Sigma-Aldrich, L'isle D'Abeau Chesne, BP 701, 38297, Saint Quentin Fallavier) and 100 μM of β-NADPH(N1630, Sigma-Aldrich, L'isle D'Abeau Chesne, BP 701, 38297, Saint Quentin Fallavier) is prepared in a brown bottle (exclusion of light).
* A mother solution assaying 1 mM is prepared in absolute ethanol and is brought to 40° C.; the bottle is placed in an ultrasonic bath to facilitate the dissolution of the product.
0.950 ml of this buffer (brought beforehand to 37° C.) is introduced into the cell of a spectrophotometer (Perkin-Elmer, Lambda 2) thermostatically controlled at 37° C., the wavelength of which for the measurement is adjusted to 340 nm. 0.05 ml of enzymatic suspension at 37° C. is introduced into the cell concomitantly with the recording (corresponding to a fall in optical density at 340 nm). The maximum rate of reaction is noted. […]

Take `O=C1NC(=O)C(=Cc2ccc(-c3ccc(C(=O)O)cc3)o2)S1` [Compound 1, 4-{5-[(2,4-Dioxo-1,3-thiazolidin-5-ylidene)methyl]-2-furyl}benzoic acid]: the IC50 at 15PGDH [1] (Tris 100 mM pH 7.4, 37° C., 50 μM prostaglandin E2, 1.5 mM β-NAD, read-out: Inhibition of 15-PGDH IC50dh) amounted to 300 nM; on PGF synthase it was 4 µM. On 15PGDH [1] (selectivity for 15-PGDH with respect to PGFS), the “ratio IC50fs/IC50dh” value is “greater than 13”. For the same compound, on 15PGDH [2], the “amount of PGF2 secreted by the cells, % of the LPS control” value was “+76 ± 20%”.
With `O=C1N=C(O)/C(=C/c2ccc(-c3ccc(C(=O)O)cc3)o2)S1` [Compound 8, Disodium salt of 4-{5-[(2,4-disulpho-1,3-thiazolidin-5-ylidene)methyl]-2-furyl}benzoic acid (isomer Z)], on 15PGDH [2], the “amount of PGF2 secreted by the cells, % of the LPS control” value is “+44 ± 16%”.
